Source: patent publication US9585891B2 (MERCK PATENT GMBH, priority 2012, dated 2017)
pIC50: −log10 of the molar value.

Assays:
[1] = target: T1, Human recombinant Vanin-1 (VNN1) (Homo sapiens, UniProt O95497); assay: Vanin-1 enzymatic assay (fluorescence intensity, Pantothenate-AMC substrate); assay type: biochemical; details: purified recombinant human Vanin-1 0.5 nM; 30 min preincubation at 30° C.; Pantothenate-AMC 30 μM, 60 min
T1 construct: purchased Sino Biological Inc. 11662-H08H
T1 sequence (O95497 22-491): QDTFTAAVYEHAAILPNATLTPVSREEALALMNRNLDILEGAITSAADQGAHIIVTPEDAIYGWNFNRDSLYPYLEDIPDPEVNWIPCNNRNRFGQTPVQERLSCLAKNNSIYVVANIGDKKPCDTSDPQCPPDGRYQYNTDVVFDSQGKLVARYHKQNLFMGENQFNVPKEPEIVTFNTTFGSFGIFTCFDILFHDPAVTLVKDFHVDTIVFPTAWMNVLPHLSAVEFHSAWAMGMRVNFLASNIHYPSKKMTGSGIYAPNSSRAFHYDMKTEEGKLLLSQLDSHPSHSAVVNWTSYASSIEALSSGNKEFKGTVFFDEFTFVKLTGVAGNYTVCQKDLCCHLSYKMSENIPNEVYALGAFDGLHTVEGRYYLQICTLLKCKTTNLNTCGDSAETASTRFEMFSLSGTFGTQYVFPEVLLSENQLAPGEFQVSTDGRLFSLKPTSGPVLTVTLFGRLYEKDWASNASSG
Protocol: Human recombinant Vanin-1 (VNN1) was purchased from Sino Biological Inc. (Catalog Number: 11662-H08H).
Measurement of VNN1 inhibition is performed in 384-well format based on fluorescence intensity assay. Purified recombinant human Vanin-1 (0.5 nM) and threefold serial diluted compounds in 3% DMSO (range of concentrations from 30 μM to 1.524 nM) or controls (3.0% DMSO) are incubated for 30 minutes at 30° C. with gentle agitation in assay buffer containing 100 mM potassium Phosphate Buffer (KPi), pH 7.5, 0.001% Bovine Serum Albumin (BSA), 0.5 mM dithiothreitol (DTT) and 0.0025% Brij-35. The reaction is initiated by the addition of the fluorogenic substrate, Pantothenate-AMC, at a concentration of 30 μM. After 60 minutes of incubation at 30° C. with gentle agitation, fluorescence intensity is measured at λex=350 nm and λem=450 nm with a fluorescence reader (BMG PHERAstar reader or equivalent).

[2] = target: T2, Vanin-1 in SUIT-S2 cell line (Homo sapiens, UniProt O95497); assay: Vanin-1 cell-based mechanistic assay (fluorescence intensity, Pantothenate-AMC substrate); details: 40000 cells per well, 2 hours incubation at 37° C., Pantothenate-AMC 30 μM, 30 min
T2 construct: endogenous in cells; host or cells: SUIT-S2 cell line (ATCC # CRL1596)
T2 sequence (O95497 22-491): T1 sequence (O95497 22-491)
Protocol: Vanin-1 Cell-Based Mechanistic Assay:
The cellular activity of the examples is measured in 96-well format based on fluorescence intensity assay using SUIT-S2 cell line (ATCC # CRL1596).
Cells are cultured at 37° C. with 5% CO2 to 80-90% confluence and then washed once with phosphate-buffered saline (PBS). Adherent cells are detached with PBS-EDTA and once in suspension 40000 cells are dispensed in 90 μl of PBS in 96-well black plates with clear bottoms. Threefold serial dilutions of test compounds are made in DMSO and then solubilized in PBS, dilution range 1:30. Cells and serial diluted test compounds (final concentrations 10 μM to 4.6 nM) or controls (PBS/0.3% DMSO) are incubated for 2 hours at 37° C. with 5% CO2. The reaction is initiated by the addition of the fluorogenic substrate, Pantothenate-AMC, at a concentration of 30 μM. After 30 minutes of incubation at 30° C. with gentle agitation, fluorescence intensity is measured at λex=350 nm and λem=450 nm with a fluorescence reader (BMG PHERAstar reader or equivalent).

CC(C)(CO)[C@@H](O)C(=O)NCCC(=O)/C=C/Cc1ccccc1 [Example 4, (R)-2,4-Dihydroxy-3,3-dimethyl-N-((E)-3-oxo-6-phenyl-hex-4-enyl)-butyramide]
pIC50 [1]: 5.70 | pIC50 [2]: 5.92

CC(C)(CO)[C@@H](O)C(=O)NCCC(=O)C(=O)NCc1cccc2ccccc12 [Example 19, (R)-2,4-Dihydroxy-3,3-dimethyl-N-{3-[(naphthalen-1-ylmethyl)-carbamoyl]-3-oxo-propyl}-butyramide]
pIC50 [1]: 7.52 | pIC50 [2]: 7.30

CC(C)(CO)[C@@H](O)C(=O)NCCC(=O)C(=O)NCc1ccc(-c2ccccc2)cc1 [Example 28, (R)—N-{3-[(Biphenyl-4-ylmethyl)-carbamoyl]-3-oxo-propyl}-2,4-dihydroxy-3,3-dimethyl-butyramide]
pIC50 [1]: 7.70 | pIC50 [2]: 7.00

CC(C)(CO)[C@@H](O)C(=O)NCCN(Cc1ccccc1)C(=O)CCl [Example 60, (R)—N-{2-[Benzyl-(2-chloro-acetyl)-amino]-ethyl}-2,4-dihydroxy-3,3-dimethyl-butyramide]
pIC50 [1]: 5.45 | pIC50 [2]: 6.22

CC(C)(CO)[C@@H](O)C(=O)NCCN(CCCc1ccccc1)C(=O)CCl [Example 58, (R)—N-{2-[(2-Chloro-acetyl)-(3-phenyl-propyl)-amino]-ethyl}-2,4-dihydroxy-3,3-dimethyl-butyramide]
pIC50 [1]: 5.61 | pIC50 [2]: 6.66

CC(C)(CO)[C@@H](O)C(=O)NCCC(=O)C(=O)NCc1ccc(Br)cc1 [Example 31, (R)—N-[3-(4-Bromo-benzylcarbamoyl)-3-oxo-propyl]-2,4-dihydroxy-3,3-dimethyl-butyramide]
pIC50 [1]: > 8.00 | pIC50 [2]: 8.00
